{
  "source": "paper PMC9561728",
  "about": "“Safety and efficacy of a GLP-1 and glucagon receptor dual agonist mazdutide (IBI362) 9 mg and 10 mg in Chinese adults with overweight or obesity: A randomised, placebo-controlled, multiple-ascending-dose phase 1b trial” (eClinicalMedicine, 2022)",
  "key": {"[1]": {"tested_on": "Chinese adults with overweight or obesity", "test": "Treatment-emergent adverse events, phase 1b trial, 9 mg and 10 mg cohorts", "details": "n = 8", "quoted_text": "The study included a 3-week screening period, a 12-week or 16-week treatment period and an 8-week safety follow-up period. During the treatment period, mazdutide or placebo was subcutaneously administered once weekly with one of the following dose-escalation regimens: 9 mg cohort (3 mg weeks 1-4; 6 mg weeks 5-8; 9 mg weeks 9-12) and 10 mg cohort (2.5 mg weeks 1-4; 5 mg weeks 5-8; 7.5 mg weeks 9-12; 10 mg weeks 13-16) (Figure S1). The escalation regimen in the 10 mg cohort provided relatively slower titration (2.5 mg every 4 weeks) to the target dose of 10 mg, and the escalation regimen in the 9 mg cohort adopted faster titration (3 mg every 4 week). Participants were required to maintain the original diet, exercise and lifestyle during the trial.\nThe primary outcomes were safety and tolerability of mazdutide. […] The severity of the TEAEs (mild, moderate or severe) and the association between an event and the study drug was assessed by investigators based on pre-specified criteria.\nSafety analyses were done in the safety population (defined as all participants who received at least one dose of the study treatment)."}, "[2]": {"test": "Non-compartmental plasma pharmacokinetics, phase 1b trial", "type": "in vivo", "details": "human; for AUC(0-t) / Cmax: geometric mean (CV%); for AUC(0-t): n = 8, read-out: AUC0-168h; for Tmax: median (range); for Tmax / Cmax: n = 8; for Cmax: non-compartmental", "excerpt": "6.3 PK/ PD assessment vari ables\n6.3.1 PK Sample Collection\nPK sampling will be performed according to the Schedule of Visits (Table 2, Table 4, Table 6), PK/PD Sampling Schedule (Table 3- 1, Table 3- 2, Table 5-1, Table 5- 2, Table 7-1, Table 7- 2), and ex aminations will be performed at a central laborator y. 3 m L of whole blood was collected into a […] vacutainer, plasma was separated, aliquoted and stored frozen for PK analysis of IBI362. Details of sampling methods, sample storage, transportation and analysis were provided in the Laboratory Manual provided by the central laboratory designated by the sponsor. […]\n• Pharmacokinetic parameters, including but not limited to Tmax, Cmax, product under the concentration- time curve (AUC), volum e of distribution (Vd), half-life (T1/2), clearan ce (C L) an d accumulation co efficient (AR); […]"}, "[3]": {"tested_on": "mouse glucagon receptors", "details": "in vitro; cited from earlier work", "method": "(§1) Mazdutide (also known as IBI362 or LY3305677) is a once-weekly mammalian oxyntomodulin analogue. […] In a phase 1b clinical trial in Chinese adults with overweight or obesity, mazdutide dosed up to 6 mg achieved 12-week mean body weight loss up to 6.4%.[11] Given the favourable safety profile and the robust body weight loss achieved in the low-dose cohort ..."}, "[4]": {"tested_on": "human glucagon receptors", "details": "in vitro; cited from earlier work", "method": "as §1"}, "[5]": {"tested_on": "mouse GLP-1 receptors", "details": "in vitro; cited from earlier work", "method": "as §1"}, "[6]": {"tested_on": "mice", "details": "cited from earlier work", "method": "as §1"}, "[7]": {"tested_on": "human GLP-1 receptors", "details": "in vitro; cited from earlier work", "method": "as §1"}, "[8]": {"test": "Isoelectric point (PI) of the study drug", "type": "physicochemical", "details": "study protocol", "method": "5.2.1 Physical and chemical characteristi cs of the study drug\nMolecular Weight: 4560.32 Daltons\nDescription: White to off-white powder\nSolubility: Solvent: 20 mM Tris buffer at pH 8.0 and 150 mM sodium chloride.\nSolubility: Not less than 10 mg/mL at 25 ℃.\n5.2.2 Study Drug Strength and Manufacturer\nThe IB I362 dru g produ ct is IBI362 for injection an d consists of 2 mg IB I362 and the […]\ncontents are reconstituted with sterile water for injection to obtain a clear solution of […]\ningredients tris (hydroxymethyl) aminomethane, mannitol, and sucrose.\" The vial contents are reconstituted with sterile water for injection to obtain a clear solution devoid […]\nThe dru g product stren gt h used in this stud y was 2 mg/vial, and the placebo strengt h matched the drug product and was provided b y the Sponsor.\nThe drug product and placebo should be stored under refrigerated conditions (2 ℃ […]\n5.2.4 Mode of administration\nBoth IBI362 and placebo will be administered by subcutaneous injection once a week. Each dose should be prepared and injected by the stud y nurse. See the Instructions for Use fo rdetails of the preparation and use of the study drug.\n5.3.1 Prohibited Medications\nThe following m edicatio ns and measur es ar e cont raindicated:\n1. Growth hormone and its analogues;\n2. Any systemic corticosteroid (including intravenous, oral, intra-articular) administered for ≥ 7 da ys. […]"}, "[9]": {"tested_on": "Chinese adults with overweight or obesity", "test": "Immunogenicity: anti-drug antibodies and neutralizing antibodies, phase 1b trial", "type": "in vivo, human", "details": "for Participants who developed treatment-induced anti-mazdutide antibodies: n = 8", "method": "Secondary outcomes included pharmacokinetics, assessed by maximum observed plasma concentration (Cmax), time at which Cmax was observed (Tmax), terminal elimination half-life (t½), and area under the curve from time zero to 168 h after the first dose (AUC0–168 h) and immunogenicity, assessed by titters of anti-drug antibodies (ADAs) and neutralizing antibodies. Secondary efficacy outcomes included the change from baseline to week 12 (9 mg cohort) or week 16 (10 mg cohort) in body weight, waist circumference, BMI, as well as the change from baseline in HbA1c, lipids, transaminase and serum uric acid levels."}, "[10]": {"tested_on": "Chinese adults with overweight or obesity", "test": "Vital signs and laboratory safety (heart rate, blood pressure, lipase, transaminases), phase 1b trial", "type": "in vivo, human", "details": "for Mean change from baseline in heart rate (maximum): placebo 4.3", "excerpt": "The primary outcomes were safety and tolerability of mazdutide.\nSummaries for other efficacy and safety variables included descriptive statistics for continuous measures (mean and standard deviation or standard error) and for categorical measures (sample size, frequency and percentages)."}, "[11]": {"details": "9 mg cohort (sc QW 3/6/9 mg, 4 wk each)"}, "[12]": {"details": "10 mg cohort (sc QW 2.5/5/7.5/10 mg, 4 wk each)"}},
  "note": "Where two headings read alike, the source gives them in different places.",
  "data": [
    {"smiles": "CC(C)C[C@H](NC(=O)[C@H](CC(C)C)NC(=O)[C@H](Cc1c[nH]c2ccccc12)NC(=O)[C@H](CCC(=O)O)NC(=O)[C@@H](NC(=O)[C@H](Cc1ccccc1)NC(=O)[C@H](CCC(=O)O)NC(=O)[C@H](CCCCNC(=O)COCCOCCNC(=O)COCCOCCNC(=O)CC[C@H](NC(=O)CCCCCCCCCCCCCCCCCCC(=O)O)C(=O)O)NC(=O)[C@H](C)NC(=O)[C@H](CCCCN)NC(=O)[C@H](CCCCN)NC(=O)[C@H](CCC(=O)O)NC(=O)[C@H](CC(=O)O)NC(=O)[C@H](CC(C)C)NC(=O)[C@H](Cc1ccc(O)cc1)NC(=O)[C@H](CCCCN)NC(=O)[C@H](CO)NC(=O)[C@H](Cc1ccc(O)cc1)NC(=O)[C@H](CC(=O)O)NC(=O)[C@H](CO)NC(=O)[C@@H](NC(=O)[C@H](Cc1ccccc1)NC(=O)[C@@H](NC(=O)CNC(=O)[C@H](CCC(N)=O)NC(=O)C(C)(C)NC(=O)[C@@H](N)Cc1c[nH]cn1)[C@@H](C)O)[C@@H](C)O)C(C)C)C(=O)N[C@@H](CCC(=O)O)C(=O)NCC(=O)NCC(=O)N1CCC[C@H]1C(=O)N[C@@H](CO)C(=O)N[C@@H](CO)C(=O)NCC(N)=O", "note": "[Mazdutide]", "values": [
      {"measurement": "TEAE: Infections and infestations (system organ class)", "setting": "[1]; [11]", "value": "6 (75.0) n (%)"},
      {"measurement": "TEAE: Upper respiratory tract infection", "setting": "[1]; [11]", "value": "3 (37.5) n (%)"},
      {"measurement": "TEAE: Urinary tract infection", "setting": "[1]; [11]", "value": "4 (50) n (%)"},
      {"measurement": "TEAE: Infections and infestations (system organ class)", "setting": "[1]; [12]", "value": "5 (62.5) n (%)"},
      {"measurement": "TEAE: Upper respiratory tract infection", "setting": "[1]; [12]", "value": "4 (50) n (%)"},
      {"measurement": "TEAE: Urinary tract infection", "setting": "[1]; [12]", "value": "2 (25) n (%)"},
      {"measurement": "AUC(0-t)", "setting": "[2]; after first sc dose 2.5 mg", "value": 21800, "unit": "ng·h/mL"},
      {"measurement": "Tmax", "setting": "[2]; after first sc dose 2.5 mg", "value": 72.3, "unit": "h"},
      {"measurement": "Cmax", "setting": "[2]; after first sc dose 2.5 mg", "value": 179, "unit": "ng/mL"},
      {"measurement": "AUC(0-t)", "setting": "[2]; after first sc dose 3 mg", "value": 31400, "unit": "ng·h/mL"},
      {"measurement": "Tmax", "setting": "[2]; after first sc dose 3 mg", "value": 72.4, "unit": "h"},
      {"measurement": "Cmax", "setting": "[2]; after first sc dose 3 mg", "value": 226, "unit": "ng/mL"},
      {"measurement": "Binding to mouse glucagon receptors", "setting": "[3]", "value": "potently bound"},
      {"measurement": "Binding to human glucagon receptors", "setting": "[4]", "value": "potently bound"},
      {"measurement": "Binding to mouse GLP-1 receptors", "setting": "[5]", "value": "potently bound"},
      {"measurement": "Body weight", "setting": "[6]; both Gcgr knockout (KO) and Glp1r KO settings", "value": "decreased body weight"},
      {"measurement": "Energy expenditure", "setting": "[6]", "value": "increased energy expenditure"},
      {"measurement": "Glucose control", "setting": "[6]", "value": "improved glucose control"},
      {"measurement": "Binding to human GLP-1 receptors", "setting": "[7]", "value": "potently bound"},
      {"measurement": "PI", "setting": "[8]", "value": 5.2},
      {"measurement": "Participants who developed treatment-induced anti-mazdutide antibodies", "setting": "[9]; 9 mg cohort", "value": "Two"},
      {"measurement": "Participants who developed treatment-induced anti-mazdutide antibodies", "setting": "[9]; 10 mg cohort", "value": "four"},
      {"measurement": "Participants who developed neutralizing antibodies", "setting": "[9]; 10 mg cohort, attenuated cAMP generation in CHO cells over-expressing human recombinant glucagon receptors", "value": "One"},
      {"measurement": "Mean change from baseline in heart rate (maximum)", "setting": "[10]; 9 mg cohort", "value": "up to 17.4 beats per minute"},
      {"measurement": "Lipase level in one participant at week 16", "setting": "[10]; 10 mg cohort, 153 U/L at baseline, upper limit of normal 300 U/L, returned to normal at safety follow-up", "value": 739, "unit": "U/L"},
      {"measurement": "Mean change from baseline in heart rate (maximum)", "setting": "[10]; 10 mg cohort", "value": "≤ 11.6", "unit": "beats per minute"},
      {"measurement": "Transaminase elevation in the two participants with ALT/AST increased", "setting": "[10]; one participant in 9 mg cohort, one in 10 mg cohort", "value": "mild (within three times upper limit of normal) and transient"}
    ]}
  ]
}
